Measurements from patent publication EP4483954A1 (Masarykova Univerzita, priority 2023, dated 2025).

Key:
Type in all cases: biochemical
CDKL4(h) = target: T1, CDKL4(h) (Homo sapiens, UniProt Q5MAI5); experiment: radiometric kinase assay (KinaseProfiler, Eurofins), CDKL4; details: in vitro radiometric kinase assay, tested at 1 nM to 10 000 nM, no pre-incubation; read-out: inhibitory activities (IC50 values) CDKL4
T1 construct: purchased Eurofins (KinaseProfiler)
Description: (§1) The compounds were profiled in the radiometric assays (KinaseProfiler, Eurofins).
(§2) Briefly, kinases were diluted in the buffer shown below prior to addition to the reaction mix: • CDKL3, TAF1L: 20 mM Tris/HCl pH 8.5, 0.2 mM EDTA, 0.1% β-mercaptoethanol, 0.01% Brij-35, 5% glycerol, 1 mg/ml BSA; • Haspin: 15 mM MOPS, 0.75 mM EDTA, 0.0075% Brij-35, 3.75% Glycerol, 150 mM NaCl, 0.1% β-mercaptoethanol, 1 mg/mLBSA; • CDKL4, CLK2, PIM1, TRB2: […], 1 mM EDTA, 0.01% Brij-35, 5% Glycerol, 0.1% β-mercaptoethanol, 1 mg/mL BSA.
(§3) All compounds were prepared to 50x final assay concentration in 100% DMSO. This working stock of the compound was added to the assay well as the first component in the reaction, followed by the remaining components as detailed in the general assay protocols below. There was no pre-incubation step between the compound and the kinase prior to initiation of the reaction.
(§4) CDKL4(h) was incubated with 8 mM MOPS pH 7.0, 0.2 mM EDTA, 250 µM RRRFRPASPLRGPPK (SEQ ID NO. 1), 10 mM magnesium acetate and γ-^33P-ATP (specific activity and concentration as required). The reaction was initiated by the addition of the Mg/ATP mix. After incubation for 120 minutes at room temperature, the reaction was stopped by the addition of phosphoric acid to a concentration of 0.5%. An aliquot of the stopped reaction was spotted onto a filter and washed four times for 4 minutes in 0.425% phosphoric acid and once in methanol prior to drying and scintillation counting.
(§5) Kinase activity data were expressed as the percent remaining kinase activity in tested samples compared to the vehicle (DMSO) reactions. The compounds were tested at the following concentrations: 1 nM, 3 nM, 10 nM, 30 nM, 100 nM, 300 nM, 1000 nM, 3000 nM, and 10 000 nM; IC50 values and curve fits were then obtained.

TAF1L(h) = target: T2, TAF1L(h) (Homo sapiens, UniProt Q8IZX4); experiment: radiometric kinase assay (KinaseProfiler, Eurofins), TAF1L; details: in vitro radiometric kinase assay, tested at 1 nM to 10 000 nM, no pre-incubation; read-out: inhibitory activities (IC50 values) TAF1L
T2 construct: purchased Eurofins (KinaseProfiler)
T2 sequence (Q8IZX4 whole entry): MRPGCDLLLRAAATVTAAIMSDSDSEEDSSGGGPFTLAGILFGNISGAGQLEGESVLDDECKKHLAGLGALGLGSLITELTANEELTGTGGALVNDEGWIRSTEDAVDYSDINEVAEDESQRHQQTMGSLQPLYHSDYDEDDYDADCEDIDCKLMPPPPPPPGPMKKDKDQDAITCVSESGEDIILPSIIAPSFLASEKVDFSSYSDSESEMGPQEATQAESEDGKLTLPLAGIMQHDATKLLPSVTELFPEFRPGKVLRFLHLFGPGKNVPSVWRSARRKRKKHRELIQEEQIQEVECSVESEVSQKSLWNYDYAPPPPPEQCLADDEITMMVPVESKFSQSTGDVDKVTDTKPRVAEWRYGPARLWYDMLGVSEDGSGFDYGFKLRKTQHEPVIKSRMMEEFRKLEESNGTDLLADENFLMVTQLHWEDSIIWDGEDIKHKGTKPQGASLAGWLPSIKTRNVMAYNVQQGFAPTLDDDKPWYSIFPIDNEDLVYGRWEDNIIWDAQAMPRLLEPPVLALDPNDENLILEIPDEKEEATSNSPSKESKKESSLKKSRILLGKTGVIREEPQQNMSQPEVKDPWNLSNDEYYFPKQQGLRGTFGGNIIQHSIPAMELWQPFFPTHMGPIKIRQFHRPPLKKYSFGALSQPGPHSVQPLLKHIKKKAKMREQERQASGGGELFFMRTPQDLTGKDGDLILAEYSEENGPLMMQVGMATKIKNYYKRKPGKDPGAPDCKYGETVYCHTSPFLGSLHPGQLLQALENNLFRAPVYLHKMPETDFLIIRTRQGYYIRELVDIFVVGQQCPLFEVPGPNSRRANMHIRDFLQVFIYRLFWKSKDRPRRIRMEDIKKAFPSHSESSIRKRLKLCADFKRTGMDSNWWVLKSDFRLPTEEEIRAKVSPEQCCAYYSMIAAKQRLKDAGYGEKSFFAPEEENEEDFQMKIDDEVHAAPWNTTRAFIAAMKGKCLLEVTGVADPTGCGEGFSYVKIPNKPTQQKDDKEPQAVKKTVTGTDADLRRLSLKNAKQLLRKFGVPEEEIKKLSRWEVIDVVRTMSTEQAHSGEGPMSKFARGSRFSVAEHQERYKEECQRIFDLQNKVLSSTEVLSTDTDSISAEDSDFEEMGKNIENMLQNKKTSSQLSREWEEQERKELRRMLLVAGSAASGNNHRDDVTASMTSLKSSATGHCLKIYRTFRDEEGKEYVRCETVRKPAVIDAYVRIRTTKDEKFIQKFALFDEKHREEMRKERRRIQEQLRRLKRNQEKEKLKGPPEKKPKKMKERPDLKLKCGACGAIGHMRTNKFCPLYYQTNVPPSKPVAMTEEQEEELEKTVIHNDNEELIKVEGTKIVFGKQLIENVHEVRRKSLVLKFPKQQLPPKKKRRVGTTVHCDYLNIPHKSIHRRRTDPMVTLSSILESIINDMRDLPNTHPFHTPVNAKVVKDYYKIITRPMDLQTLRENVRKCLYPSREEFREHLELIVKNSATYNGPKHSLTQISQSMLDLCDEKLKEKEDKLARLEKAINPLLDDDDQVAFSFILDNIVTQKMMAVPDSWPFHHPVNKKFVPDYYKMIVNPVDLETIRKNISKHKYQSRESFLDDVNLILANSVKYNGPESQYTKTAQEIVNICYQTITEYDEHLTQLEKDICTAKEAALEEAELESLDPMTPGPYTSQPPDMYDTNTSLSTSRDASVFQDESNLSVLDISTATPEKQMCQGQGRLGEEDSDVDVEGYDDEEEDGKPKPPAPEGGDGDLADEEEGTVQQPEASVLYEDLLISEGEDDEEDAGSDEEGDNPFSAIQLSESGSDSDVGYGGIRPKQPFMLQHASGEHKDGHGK
Description: as §1, §2, §3
as §4, with “TAF1L(h)” for “CDKL4(h)”, “20” for “8”, “Tris/HCl” for “MOPS”, “8.5,” for “7.0,”
as §5

CLK2 (h) = target: T3, CLK2 (h) (Homo sapiens, UniProt P49760); experiment: radiometric kinase assay (KinaseProfiler, Eurofins), CLK2; details: in vitro radiometric kinase assay, tested at 1 nM to 10 000 nM, no pre-incubation; read-out: inhibitory activities (IC50 values) CLK2
T3 construct: purchased Eurofins (KinaseProfiler)
T3 sequence (P49760 whole entry): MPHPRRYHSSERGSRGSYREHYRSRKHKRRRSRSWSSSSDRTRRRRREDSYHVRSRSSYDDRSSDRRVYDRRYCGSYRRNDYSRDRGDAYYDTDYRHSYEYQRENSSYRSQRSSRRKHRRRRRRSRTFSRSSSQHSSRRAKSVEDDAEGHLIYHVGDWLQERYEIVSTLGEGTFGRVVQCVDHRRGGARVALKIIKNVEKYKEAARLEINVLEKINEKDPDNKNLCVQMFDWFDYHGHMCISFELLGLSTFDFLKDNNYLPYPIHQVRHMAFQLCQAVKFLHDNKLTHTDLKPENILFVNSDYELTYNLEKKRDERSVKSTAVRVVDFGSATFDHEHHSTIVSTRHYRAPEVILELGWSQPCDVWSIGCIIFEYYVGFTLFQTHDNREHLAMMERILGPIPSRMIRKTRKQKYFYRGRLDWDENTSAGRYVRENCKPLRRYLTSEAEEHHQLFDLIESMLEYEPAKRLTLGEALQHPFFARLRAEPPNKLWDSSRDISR
Description: as §1, §2, §3
CLK2 (h) was incubated with 8 mM MOPS pH 7.0, 0.2 mM EDTA, 20 µM […](p)EDEEE (SEQ ID NO. 2), 10 mM magnesium acetate and γ-^33P-ATP (specific activity and concentration as required). The reaction was initiated by the addition of the Mg/ATP mix. After incubation for 40 minutes at room temperature, the reaction was stopped by the addition of phosphoric acid to a concentration of 0.5%. An aliquot of the reaction was then spotted onto a filter and washed four times for 4 minutes in 0.425% phosphoric acid and once in methanol prior to drying and scintillation counting.
as §5

PIM1 (h) = target: T4, PIM1 (h) (Homo sapiens, UniProt P11309); experiment: radiometric kinase assay (KinaseProfiler, Eurofins), PIM1; details: in vitro radiometric kinase assay, tested at 1 nM to 10 000 nM, no pre-incubation; read-out: inhibitory activities (IC50 values) PIM1
T4 construct: purchased Eurofins (KinaseProfiler)
T4 sequence (P11309 whole entry): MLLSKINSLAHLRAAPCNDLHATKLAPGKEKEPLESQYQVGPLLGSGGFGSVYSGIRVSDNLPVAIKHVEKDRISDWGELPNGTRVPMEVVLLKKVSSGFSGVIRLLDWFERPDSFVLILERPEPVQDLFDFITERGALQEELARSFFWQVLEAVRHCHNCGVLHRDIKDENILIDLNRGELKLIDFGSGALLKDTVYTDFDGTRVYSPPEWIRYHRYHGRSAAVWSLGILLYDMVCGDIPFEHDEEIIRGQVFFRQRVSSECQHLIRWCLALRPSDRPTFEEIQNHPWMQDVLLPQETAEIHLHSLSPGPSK
Description: as §1, §2, §3
PIM1 (h) was incubated with 8 mM MOPS pH 7.0, 0.2 mM EDTA, 100 µM KKRNRTLTV (SEQ ID NO. 4), 10 mM magnesium acetate and γ-^33P-ATP (specific activity and concentration as required). The reaction was initiated by the addition of the Mg/ATP mix. After incubation for 40 minutes at room temperature, the reaction was stopped by the addition of phosphoric acid to a concentration of 0.5%. An aliquot of the reaction was then spotted onto a filter and washed four times for 4 minutes in 0.425% phosphoric acid and once in methanol prior to drying and scintillation counting.
as §5

TRB2(h) = target: T5, TRB2(h) (Homo sapiens, UniProt Q92519); experiment: radiometric kinase assay (KinaseProfiler, Eurofins), TRB2; details: in vitro radiometric kinase assay, tested at 1 nM to 10 000 nM, no pre-incubation; read-out: inhibitory activities (IC50 values) TRB2
T5 construct: purchased Eurofins (KinaseProfiler)
T5 sequence (Q92519 1-343): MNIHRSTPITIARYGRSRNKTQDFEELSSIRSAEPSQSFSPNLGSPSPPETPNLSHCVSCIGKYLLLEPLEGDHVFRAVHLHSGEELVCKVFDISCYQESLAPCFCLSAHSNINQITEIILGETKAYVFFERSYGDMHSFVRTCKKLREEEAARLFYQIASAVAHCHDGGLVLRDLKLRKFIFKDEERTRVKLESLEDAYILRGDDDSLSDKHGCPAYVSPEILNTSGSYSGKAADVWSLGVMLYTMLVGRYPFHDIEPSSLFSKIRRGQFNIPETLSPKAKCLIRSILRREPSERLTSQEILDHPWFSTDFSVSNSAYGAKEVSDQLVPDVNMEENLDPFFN
Description: as §1, §2, §3
as §4, with “TRB2(h)” for “CDKL4(h)”
as §5

T1 sequence (Q5MAI5 whole entry): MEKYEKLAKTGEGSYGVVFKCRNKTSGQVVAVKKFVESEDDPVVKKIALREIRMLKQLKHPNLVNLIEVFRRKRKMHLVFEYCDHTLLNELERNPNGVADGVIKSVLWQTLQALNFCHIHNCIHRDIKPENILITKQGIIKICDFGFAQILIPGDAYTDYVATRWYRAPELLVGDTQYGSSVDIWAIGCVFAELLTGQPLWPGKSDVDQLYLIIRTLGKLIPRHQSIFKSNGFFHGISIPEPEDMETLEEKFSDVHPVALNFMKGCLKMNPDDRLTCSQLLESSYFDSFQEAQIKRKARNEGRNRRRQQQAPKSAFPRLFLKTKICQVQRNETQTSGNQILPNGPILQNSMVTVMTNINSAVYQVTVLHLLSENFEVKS

Compound | IC50 (CDKL4(h)) [µM] | IC50 (TAF1L(h)) [µM] | IC50 (CLK2 (h)) [µM] | IC50 (PIM1 (h)) [µM] | IC50 (TRB2(h)) [µM]
Cn1cc(-c2ccc3scc(-c4ccc5ncnn5c4)c3n2)cn1 [Preparative Example 53, 3-([1,2,4]-triazolo[1,5-a]pyridin-6-yl)-5-(1-methyl-1H-pyrazol-4-yl)thieno[3,2-b]pyridine] | 0.1 to 0.499 | 0.1 to 0.499 | 0.5 to 3 | 0.1 to 0.499 | 0.02 to 0.099
Cn1nccc1-c1ccc2scc(-c3ccncc3)c2n1 [Preparative Example 90, 5-(1-methyl-1H-pyrazol-5-yl)-3-(pyridin-4-yl)thieno[3,2-b]pyridine] | 0.5 to 3 | 0.5 to 3 | 3 to 10 | 3 to 10 | 0.5 to 3
CC(C)n1cc(-c2ccc3scc(-c4ccncc4)c3n2)cn1 [Preparative Example 79, 5-(1-isopropyl-1H-pyrazol-4-yl)-3-(pyridin-4-yl)thieno[3,2-b]pyridine] | 3 to 10 | 3 to 10 | 3 to 10 | 3 to 10 | 0.5 to 3
Cn1cc(-c2ccc3scc(-c4cccnc4)c3n2)cn1 [Preparative Example 11, 5-(1-methyl-1H-pyrazol-4-yl)-3-(pyridin-3-yl)thieno[3,2-b]pyridine] | 0.5 to 3 | 0.5 to 3 | 3 to 10 | 0.5 to 3 | 0.5 to 3
Cc1cc(-c2csc3ccc(-c4cnn(C)c4)nc23)cc(C)n1 [Preparative Example 30, 3-(2,6-dimethylpyridin-4-yl)-5-(1-methyl-1H-pyrazol-4-yl)thieno-[3,2-b]pyridine] | 0.1 to 0.499 | 0.1 to 0.499 | 3 to 10 | 0.1 to 0.499 | 0.5 to 3
Cc1sc2ccc(-c3cnn(C)c3)nc2c1-c1ccncc1 [Preparative Example 142, 2-methyl-5-(1-methyl-1H-pyrazol-4-yl)-3-(pyridin-4-yl)thieno[3,2-b]pyridine] | 0.5 to 3 | 0.5 to 3 | 3 to 10 | 3 to 10 | 0.5 to 3
Cc1cc(-c2csc3ccc(-c4cnn(C)c4)nc23)ccn1 [Preparative Example 15, 5-(1-methyl-1H-pyrazol-4-yl)-3-(2-methylpyridin-4-yl)-thieno[3,2-b]pyridine] | 0.1 to 0.499 | 0.1 to 0.499 | 0.5 to 3 | 0.1 to 0.499 | 0.1 to 0.499
Cn1cc(-c2ccc3scc(-c4ccncc4)c3n2)cn1 [Preparative Example 13, 5-(1-methyl-1H-pyrazol-4-yl)-3-(pyridin-4-yl)thieno[3,2-b]pyridine] | 0.1 to 0.499 | 0.1 to 0.499 | 3 to 10 | 0.1 to 0.499 | 0.5 to 3
c1ccc(-c2csc3ccc(-c4ccoc4)nc23)cc1 [Preparative Example 123, 5-(furan-3-yl)-3-phenylthieno[3,2-b]pyridine] | 3 to 10 | 3 to 10 | 3 to 10 | 3 to 10 | 3 to 10
Cn1cc(-c2ccc3scc(-c4cnn(Cc5ccccc5)c4)c3n2)cn1 | 0.1 to 0.499 | 0.1 to 0.499 | 3 to 10 | 0.02 to 0.099 | 0.5 to 3
Cn1cc(-c2ccc3scc(-c4ccncc4)c3n2)c(NC(=O)OC(C)(C)C)n1 [Preparative Example 83, tert-butyl(1-methyl-4-(3-(pyridin-4-yl)thieno[3,2-b]pyridin-5-yl)-1H-pyrazol-3-yl)carbamate] | 0.5 to 3 | 0.5 to 3 | 3 to 10 | 3 to 10 | 0.5 to 3
Cn1cc(-c2ccc3scc(-c4ccncc4C#N)c3n2)cn1 [Preparative Example 34, 4-(5-(1-methyl-1H-pyrazol-4-yl)thieno[3,2-b]pyridin-3-yl)nicotino-nitrile] | 3 to 10 | 0.5 to 3 | 3 to 10 | 0.5 to 3 | 3 to 10
Cn1cc(-c2ccc3scc(-c4ccnc(CN)c4)c3n2)cn1 [Preparative Example 28, (4-(5-(1-methyl-1H-pyrazol-4-yl)thieno[3,2-b]pyridin-3-yl)pyridin-2-yl)methanamine] | 0.5 to 3 | 0.5 to 3 | 3 to 10 | 0.1 to 0.499 | 0.5 to 3
